Measurements as given in article PMC9862037, “Interactions of Mycotoxin Alternariol with Cytochrome P450 Enzymes and OATP Transporters” (Metabolites, 2022).

Experiments:
CYP2C19 = target: T1, CYP2C19 (Homo sapiens, UniProt P33261); assay type: biochemical
T1 construct: purchased Merck; host or cells: yeast (inferred from the description of the CYPnull control, 'processed identically')
Procedure: (§1) The potential inhibitory effects of AOH on CYP2C9, 2C19, 2D6, and 3A4 enzymes were tested in vitro employing CypExpress human kits, using the substrates recommended by the U.S. Food and Drug Administration (FDA; https://www.fda.gov/drugs/drug-interactions-labeling/drug-development-and-drug-interactions-table-substrates-inhibitors-and-inducers; accessed on 19 December 2022) (diclofenac, S-mephenytoin, dextromethorphan, and testosterone, respectively). The impacts of increasing concentrations of AOH (0.00, 0.05, 0.50, 2.0, 5.0, 10, 25, 30, and 50 μM) were examined on diclofenac 4′-hydroxylation (CYP2C9), S-mephenytoin 4-hydroxylation (CYP2C19), dextromethorphan demethylation (CYP2D6), and testosterone 6β-hydroxylation (CYP3A4) as described previously, without modifications. In these assays, the substrates and products were quantified by HPLC-UV [28].
(§2) IC50 values were calculated by sigmoidal fitting (Hill1), using the Origin (version 2018, OriginLab Corporation, Northampton, MA, USA) software.
(§3) After CYP450 incubations, the product formation rate was investigated using an integrated HPLC system (Jasco, Tokyo, Japan) built up from an autosampler (AS-4050), a binary pump (PU-4180), and a UV detector (UV-975). Chromatographic data were evaluated employing ChromNAV2 software (Jasco, Tokyo, Japan). Quantitative determinations of 4′-hydroxydiclofenac and diclofenac (CYP2C9), 4-hydroxymephenytoin and mephenytoin (CYP2C19), dextromethorphan and dextrorphan (CYP2D6), as well as testosterone and 6β-hydroxytestosterone (CYP3A4) were carried out as previously reported, without modifications.

CYP2D6 = target: T2, CYP2D6 (Homo sapiens, UniProt P10635); assay type: biochemical; conditions: 50 μM AOH
T2 construct: purchased Merck; host or cells: yeast (inferred from the description of the CYPnull control, 'processed identically')
T2 sequence (P10635 whole entry): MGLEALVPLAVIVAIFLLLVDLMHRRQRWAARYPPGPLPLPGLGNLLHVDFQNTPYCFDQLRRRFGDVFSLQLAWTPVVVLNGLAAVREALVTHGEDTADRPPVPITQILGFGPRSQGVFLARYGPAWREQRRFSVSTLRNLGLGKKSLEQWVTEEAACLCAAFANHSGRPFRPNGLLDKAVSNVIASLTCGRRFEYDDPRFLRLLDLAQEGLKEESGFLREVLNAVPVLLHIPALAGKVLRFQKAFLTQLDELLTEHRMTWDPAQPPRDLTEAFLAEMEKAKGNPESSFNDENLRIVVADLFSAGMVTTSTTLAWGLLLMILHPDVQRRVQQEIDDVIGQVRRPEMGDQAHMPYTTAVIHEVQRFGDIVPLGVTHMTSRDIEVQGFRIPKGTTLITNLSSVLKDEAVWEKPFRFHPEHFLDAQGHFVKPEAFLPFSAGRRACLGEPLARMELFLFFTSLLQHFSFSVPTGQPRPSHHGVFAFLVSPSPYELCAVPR
Procedure: as §1, §2, §3

CYP3A4 = target: T3, CYP3A4 (Homo sapiens, UniProt P08684); assay type: biochemical; conditions: plateau above 10 μM AOH
T3 construct: purchased Merck; host or cells: yeast (inferred from the description of the CYPnull control, 'processed identically')
T3 sequence (P08684 whole entry): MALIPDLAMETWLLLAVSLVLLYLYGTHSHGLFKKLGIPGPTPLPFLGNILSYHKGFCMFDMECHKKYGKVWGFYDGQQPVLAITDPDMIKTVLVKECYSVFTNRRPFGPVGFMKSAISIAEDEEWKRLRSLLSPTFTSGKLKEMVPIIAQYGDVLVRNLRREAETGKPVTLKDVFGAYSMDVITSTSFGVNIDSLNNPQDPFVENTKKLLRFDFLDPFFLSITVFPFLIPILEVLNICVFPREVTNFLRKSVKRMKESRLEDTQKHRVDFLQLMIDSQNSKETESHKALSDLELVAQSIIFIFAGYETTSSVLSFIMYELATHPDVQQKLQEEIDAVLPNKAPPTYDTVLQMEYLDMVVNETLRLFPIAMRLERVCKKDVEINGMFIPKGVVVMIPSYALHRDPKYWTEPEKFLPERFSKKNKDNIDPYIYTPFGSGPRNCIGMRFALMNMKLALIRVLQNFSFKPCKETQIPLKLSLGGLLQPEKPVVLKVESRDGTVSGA
Procedure: as §1, §2, §3

OATP1B1 = OATP1B1 (Homo sapiens, UniProt Q9Y6L6); assay type: cell-based; set-up: expressed in transfected cells; host or cells: A431; conditions: 2, 5 or 10 µM AOH; 15 min; pH 5.5
OATP1B1, sequence (Q9Y6L6 whole entry): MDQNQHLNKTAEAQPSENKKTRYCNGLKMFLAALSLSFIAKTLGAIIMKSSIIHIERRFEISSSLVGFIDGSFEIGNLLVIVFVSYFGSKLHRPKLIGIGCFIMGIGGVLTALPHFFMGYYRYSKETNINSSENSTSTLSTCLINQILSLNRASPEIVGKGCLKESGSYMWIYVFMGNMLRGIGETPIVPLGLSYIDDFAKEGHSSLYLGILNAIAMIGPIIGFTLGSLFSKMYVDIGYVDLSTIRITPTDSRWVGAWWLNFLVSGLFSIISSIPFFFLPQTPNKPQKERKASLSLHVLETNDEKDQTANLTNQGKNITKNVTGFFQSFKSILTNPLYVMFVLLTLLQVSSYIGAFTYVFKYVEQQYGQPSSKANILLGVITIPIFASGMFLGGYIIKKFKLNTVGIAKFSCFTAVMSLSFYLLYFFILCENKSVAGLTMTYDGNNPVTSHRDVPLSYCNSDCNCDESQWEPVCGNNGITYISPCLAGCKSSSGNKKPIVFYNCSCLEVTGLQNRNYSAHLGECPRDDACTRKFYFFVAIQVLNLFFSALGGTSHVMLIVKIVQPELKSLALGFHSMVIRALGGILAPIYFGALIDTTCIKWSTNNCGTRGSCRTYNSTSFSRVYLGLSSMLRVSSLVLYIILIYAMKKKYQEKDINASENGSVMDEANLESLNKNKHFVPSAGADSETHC
Procedure: The A431 cell line overexpressing OATP1B1 or mock transfected control were trypsinized, and counted with automated cell counter (TC10, BIORAD, Hercules, CA, USA). The cells were washed with 1 mL buffer (pH 5.5; described above) and centrifuged for 5 min at 1500 g. After the supernatant was removed, 2 × 10^6 cells in 50 µL volume of the same buffer were handed out into separate Eppendorf tubes, then 50 µL of AOH solutions (diluted in buffer, pH 5.5) was added (final concentrations: 2, 5, or 10 µM). The cells were incubated for 15 min at 37 °C in shaking water bath. The reaction was stopped with 1 mL ice-cold PBS, after which the tubes were centrifuged for 5 min at 1500 g and 4 °C. The supernatant was removed, and the cells were washed with 1 mL ice-cold PBS, then the cell pellet was stored at −80 °C until analyses.
Before HPLC measurements, cell pellets were dissolved in 100 μL of 1 M NaOH solution with vigorous vortexing. After 15 min sonication, the solution was neutralized with 100 μL of 1 M HCl, then 200 μL acetonitrile was added. […] Thereafter, the supernatant was directly analyzed with HPLC-FLD (see details in Section 2.7).
To examine the OATP1B1-mediated uptake of AOH in A431 cells, our recently reported magnesium-sensitized HPLC-FLD method was applied. […] AOH was quantified using 345 nm and 455 nm excitation and emission wavelengths, respectively. […]

T1 sequence (P33261 whole entry): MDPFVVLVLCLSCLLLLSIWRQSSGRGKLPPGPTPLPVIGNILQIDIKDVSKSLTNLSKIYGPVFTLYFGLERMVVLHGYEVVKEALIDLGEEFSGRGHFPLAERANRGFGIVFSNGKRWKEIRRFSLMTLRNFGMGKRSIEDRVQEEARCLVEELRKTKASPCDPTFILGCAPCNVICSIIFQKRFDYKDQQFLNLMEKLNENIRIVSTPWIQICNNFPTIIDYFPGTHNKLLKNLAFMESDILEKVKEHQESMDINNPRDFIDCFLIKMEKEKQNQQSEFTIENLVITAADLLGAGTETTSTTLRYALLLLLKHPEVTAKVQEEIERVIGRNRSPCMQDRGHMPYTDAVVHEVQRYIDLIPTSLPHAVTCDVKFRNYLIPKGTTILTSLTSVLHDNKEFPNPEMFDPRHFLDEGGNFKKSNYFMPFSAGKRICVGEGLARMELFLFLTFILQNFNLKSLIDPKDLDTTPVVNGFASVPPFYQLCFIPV

Structure (SMILES): Cc1cc(O)cc2oc(=O)c3c(O)cc(O)cc3c12 [AOH, Alternariol]
- CYP2C19 inhibition at 5 μM (CYP2C19; 5 μM AOH, p < 0.01): significantly (p < 0.01) inhibited
- decrease in 4-hydroxymephenytoin production (CYP2C19) (CYP2C19; 50 μM AOH (highest concentration)): 55%
- effect on CYP2D6-catalyzed dextromethorphan demethylation (CYP2D6): not affected
- CYP3A4 inhibition (decrease in metabolite formation) (CYP3A4): approximately 40%
- cellular AOH levels in OATP1B1 expressing vs mock cells (OATP1B1): higher cellular AOH levels
